Paper PMC4383003, “Transfer hydrogenation catalysis in cells as a new approach to anticancer drug design” (Nature Communications, 2015)
Several values for one entry are separate records, joined by “and”; a condition that tells them apart may be missing. Identical values can stand only once.

Legend:
[1] = tested on: A2780 human ovarian cancer cells; test: In vitro growth inhibition assay (SRB), A2780; format: cell-based; conditions: A2780, 24 h drug exposure, no formate
Protocol: A2780 human ovarian carcinoma and MRC5 human fetal lung fibroblasts were obtained from the European Collection of Cell Cultures. Both cell lines were grown in Roswell Park Memorial Institute medium (RPMI-1640) supplemented with 10% of fetal calf serum, 1% of 2 mM glutamine and 1% penicillin/streptomycin. All cells were grown as adherent monolayers at 310 K in a 5% CO2-humidified atmosphere and passaged at ca. 70–80% confluency.
The antiproliferative activity of complexes 1–8 was determined in A2780 ovarian cancer cells and MRC5 fibroblasts. Briefly, 96-well plates were used to seed 5,000 cells per well. The plates were left to pre-incubate with drug-free medium at 310 K for 48 h before adding different concentrations of the compounds to be tested. A drug exposure period of 24 h was allowed. After this, supernatants were removed by suction and each well was washed with PBS. A further 72 h were allowed for the cells to recover in drug-free medium at 310 K. The sulforhodamine B (SRB) assay was used to determine cell viability. IC50 values, as the concentration that causes 50% cell death, were determined as duplicates of triplicates in two independent sets of experiments and their s.d. were calculated.

[2] = tested on: A2780 ovarian cancer cells; test: Cell viability on co-administration of Ru complexes (1/3 x IC50) with formate or acetate; format: cell-based, human; conditions: for Cell viability percentages / Cell viability: A2780, complex 1/3 x IC50, 24 h
Protocol: Cell viability assays were carried out with complexes 1–8 in A2780 ovarian cancer cells. These experiments were carried out as described above with the following modifications: a fixed concentration of each Ru complex equal to 1/3 × IC50 was used in co-administration with three different concentrations of sodium formate or sodium acetate (0.5, 1.0 and 2.0 mM). To prepare the stock solution of the drug, the complex was dissolved in 5% dimethylsulfoxide and diluted in a 1:1 mixture of 0.9% saline:cell culture medium. This stock was further diluted using RPMI-1640 until working concentrations were achieved. Separately, stock solutions of sodium formate or sodium acetate were prepared in saline. The complex and formate were added to each well independently, but within 5 min of each other.
Supplementary Table 7: Percent cell viability of A2780 ovarian cancer cells exposed to equipotent concentrations of ruthenium complexes 1-3 and 5-8 (1/3 x […]
The experiments included 48 h of pre-incubation and 72 h of drug recovery, both in drug-free medium at 310 K in a 5% CO2 humidified atmosphere. All the experiments were performed as duplicates of triplicates in independent experiments and the error bars were calculated as the standard deviation from the mean.
Supplementary Table 11: Cell viability (%) of A2780 ovarian cancer cells exposed […]
administered with different concentrations of sodium acetate (0, 0.5, 1 and 2 mM).
The experiments involved 48 h of pre-incubation and 72 h of drug recovery, both in […]
Cell viability percentages (%)
Complex Acetate concentration (mM)

calf thymus DNA = test: Interaction with calf thymus DNA (ethanol precipitation, ICP-MS of Ru); format: binding
Protocol: Interaction with calf thymus DNA
Complex 2 was chosen as representative of the series. A stock solution of complex 2 (0.7 mM in 5 % acetonitrile/water) was prepared and aliquots of 66 μL were added to a solution of CT-DNA (final ratio 1:3 complex: base pairs-DNA) in water, 2 mM cacodylate buffer and 2 mM NaCl. The reaction mixture was incubated at 310 K, and aliquots of 300 μL were taken at different intervals during a period of 27 h. The DNA was then precipitated by addition of ethanol (700 μL, final concentration 70% v/v). Ru complexes which are strongly bound to CT-DNA will precipitate together with the DNA upon addition of ethanol, and, therefore the ruthenium concentration in the supernatant should decrease. However, no changes in the Ru concentration were detected by ICP-MS showing that the interaction between the complex 2 and DNA is weak (t = 0 h / 64.2 ± 0.7 µM, t = 24 h/ 65.1 ± 0 .3 µM free Ru). In contrast complex 8

CT-DNA = test: Circular dichroism of CT-DNA; format: binding, calf; conditions: different concentrations of complex 2
Protocol: Supplementary Figure 4: Circular dichroism spectra of CT-DNA (1 mM) in red and CT-DNA (1 mM)/complex 2 (mol ratio 3:1) in black. Spectra were recorded under the same conditions, using (A) cacodylate buffer (2 mM, pH 7.4) and NaCl (20 mM) at 298 K, (B) PBS buffer (2 mM, pH 7.4) and NaCl (20 mM).
(1 picture or pasted object on this page, not shown here) […]
the nucleobases.11 Destabilization of DNA can result in a decrease of the melting […]
In the presence of complex 8, the melting temperature of CT-DNA increased In agreement with the literature, 12 by 14 K, in 2 mM NaCl, 2 mM cacodylate buffer.
This increase is due to Ru binding to DNA as well as intercalation. 12 However, upon increasing the chloride concentration by ca. 10x (20 mM NaCl) the melting temperature of CT-DNA in the presence of complex 8, increased only by 7 K. This effect has previously been reported and it is attributed to the partial inhibition of hydrolysis, and, therefore, inhibition of coordination to DNA. 12, 13
Experiments performed in the presence of complex 2, in 2 mM cacodylate buffer and […]
NaCl, no decrease of the melting temperature was observed. These experiments […]
Furthermore, strong binding to DNA can induce chirality in the metal complex, generating a CD signal. 14 CD spectra of CT-DNA in the presence of different concentrations of complex 2 were recorded (Supplementary Figure 4). […]

A2780 cells = test: Induction of necrosis (7-ADD flow cytometry); format: cell-based, human; conditions: A2780, complex 2 in presence and absence of 2 mM sodium formate, 24 h
Protocol: Flow cytometry analysis of necrosis in A2780 cells caused by exposure to complex 2 and sodium formate was carried out using a Apotosis/Necrosis detection kit (Abcam) according to the manufacturer’s instructions. […] Cells were harvested using trypsin and stained using the membrane-impermeable nuclear dye 7-ADD (Ex/Em 546/647 nm). After staining in the dark, cell pellets were analysed in a Becton Dickinson FACScan Flow Cytometer. For positive-necrosis controls, A2780 cells were exposed to methanol.

Question: How did the IC50 [1] turn out when `Cc1ccc(C(C)C)cc1.Cc1ccc(S(=O)(=O)[N-]CCN)cc1.[Cl-].[Ru+2]` [Complex 2, [(p-cym)Ru(TsEn)Cl]] was run?
Answer: 13.6 ± 0.6 µM

Question: What about the Cell viability percentages ([2]; acetate 0 mM) of the same molecule?
Answer: 70.8 ± 0.6%

Question: And the Cell viability percentages ([2]; acetate 0.5 mM)?
Answer: 69.4 ± 0.9%

Question: And the Cell viability percentages ([2]; acetate 1 mM)?
Answer: 68.9 ± 0.3%

Question: What about the Cell viability percentages ([2]; acetate 2 mM) of the same molecule?
Answer: 67.1 ± 0.6%

Question: What about the Cell viability ([2]; formate 0.5 mM) of the same molecule?
Answer: 49.7 ± 0.8%

Question: What about the Cell viability ([2]; formate 1 mM) of the same molecule?
Answer: 38.2 ± 0.6%

Question: And the Cell viability ([2]; formate 2 mM)?
Answer: 1.5 ± 0.1% and ~1%

Question: And the “decrease in cell survival” value ([2]; A2780, formate increased from 0 to 2 mM)?
Answer: ca. 50 fold

Question: And the “free Ru in supernatant” value (calf thymus DNA; CT-DNA, 1:3 complex:base pairs, 310 K, t = 0 h)?
Answer: 64.2 ± 0.7 µM

Question: And the “binding to calf thymus DNA” value (calf thymus DNA; ICP-MS of Ru, up to 27 h at 310 K, 1:3 complex:DNA base pairs, 2 mM cacodylate pH 7.4, 2 mM NaCl)?
Answer: weak and no binding

Question: And the “changes in CD spectra of CT-DNA” value (CT-DNA)?
Answer: No changes

Question: And the induction of necrosis (A2780 cells)?
Answer: no cellular necrosis
